Reference: US20210085467A1, “SELECTIVE TARGETED RELEASE” (WEST VIRGINIA UNIVERSITY, priority 2018, published 2021)

Tests used:
free floating bacteria = experiment: Drug levels necessary to treat free floating bacteria; details: planktonic bacteria
biofilm infections = experiment: Drug levels necessary to treat biofilm infections

## CN[C@H](CC(C)C)C(=O)N[C@H]1C(=O)N[C@@H](CC(N)=O)C(=O)N[C@H]2C(=O)N[C@H]3C(=O)N[C@H](C(=O)N[C@H](C(=O)O)c4cc(O)cc(O)c4-c4cc3ccc4O)[C@H](O)c3ccc(c(Cl)c3)Oc3cc2cc(c3O[C@@H]2O[C@H](CO)[C@@H](O)[C@H](O)[C@H]2O[C@H]2C[C@](C)(N)[C@H](O)[C@H](C)O2)Oc2ccc(cc2Cl)[C@H]1O [vancomycin]
Free floating bacteria
  drug levels necessary to treat free floating bacteria: 1 to 10 µg/mL
Biofilm infections
  drug levels necessary to treat biofilm infections: 10 to 100 µg/mL
